According to the NIST ThermoML archive (doi:10.1016/j.jct.2016.11.009):
± gives the expanded uncertainty stated by the source.

Assay: xn = mol fraction of the nth substance listed
Conditions: Fluid (supercritical or subcritical phases), Buoyancy - hydrostatic balance with magnetic suspension - one sinker

C [methane] + O=C=O
mass density (299.61 K, 4220 kPa, x2 = 0.6015): 65.102 ± 0.33 kg/m3 | mass density (299.93 K, 5997 kPa, x2 = 0.3997): 77.827 ± 0.43 kg/m3 | mass density (299.94 K, 6004 kPa, x2 = 0.6015): 100.404 ± 0.53 kg/m3 | mass density (299.95 K, 9002 kPa, x2 = 0.2017): 95.03 ± 0.61 kg/m3 | mass density (299.95 K, 15006 kPa, x2 = 0.8988): 723.669 ± 6.4 kg/m3 | mass density (299.96 K, 5002 kPa, x2 = 0.6015): 79.746 ± 0.4 kg/m3 | mass density (299.96 K, 7003 kPa, x2 = 0.3997): 93.846 ± 0.54 kg/m3 | mass density (299.96 K, 7999 kPa, x2 = 0.2017): 82.733 ± 0.51 kg/m3 | mass density (299.96 K, 8008 kPa, x2 = 0.8988): 302.149 ± 5.3 kg/m3 | mass density (299.96 K, 12001 kPa, x2 = 0.3997): 186.929 ± 1.3 kg/m3 | mass density (299.97 K, 5996 kPa, x2 = 0.7985): 129.225 ± 0.73 kg/m3 | mass density (299.97 K, 6997 kPa, x2 = 0.2017): 70.838 ± 0.43 kg/m3 | mass density (299.97 K, 8000 kPa, x2 = 0.3997): 110.726 ± 0.65 kg/m3 | mass density (299.97 K, 10986 kPa, x2 = 0.8988): 631.428 ± 6.6 kg/m3 | mass density (299.97 K, 13852 kPa, x2 = 0.0998): 130.843 ± 0.97 kg/m3 | mass density (299.98 K, 2118 kPa, x2 = 0.0998): 16.647 ± 0.15 kg/m3 | mass density (299.98 K, 4383 kPa, x2 = 0.0998): 35.981 ± 0.23 kg/m3 | mass density (299.98 K, 7000 kPa, x2 = 0.6015): 123.126 ± 0.74 kg/m3 | mass density (299.98 K, 7004 kPa, x2 = 0.8988): 203.104 ± 1.9 kg/m3 | mass density (299.98 K, 8002 kPa, x2 = 0.6015): 148.65 ± 0.96 kg/m3 | mass density (299.98 K, 8997 kPa, x2 = 0.3997): 128.548 ± 0.81 kg/m3 | mass density (299.98 K, 8997 kPa, x2 = 0.8988): 483.358 ± 9.9 kg/m3 | mass density (299.98 K, 9722 kPa, x2 = 0.0998): 87.624 ± 0.59 kg/m3 | mass density (299.98 K, 10003 kPa, x2 = 0.7985): 353.847 ± 4.6 kg/m3 | mass density (299.98 K, 10997 kPa, x2 = 0.7985): 428.638 ± 5.1 kg/m3 | mass density (299.99 K, 4000 kPa, x2 = 0.2017): 37.902 ± 0.23 kg/m3 | mass density (299.99 K, 4003 kPa, x2 = 0.3997): 48.763 ± 0.27 kg/m3 | mass density (299.99 K, 4192 kPa, x2 = 0.0998): 34.275 ± 0.23 kg/m3 | mass density (299.99 K, 4997 kPa, x2 = 0.7985): 99.658 ± 0.49 kg/m3 | mass density (299.99 K, 6002 kPa, x2 = 0.2017): 59.46 ± 0.36 kg/m3 | mass density (299.99 K, 10005 kPa, x2 = 0.2017): 107.622 ± 0.7 kg/m3 | mass density (299.99 K, 12000 kPa, x2 = 0.2017): 133.357 ± 0.91 kg/m3 | mass density (299.99 K, 12004 kPa, x2 = 0.6015): 275.504 ± 2.5 kg/m3 | mass density (299.99 K, 12017 kPa, x2 = 0.8988): 664.349 ± 7.4 kg/m3 | mass density (299.99 K, 14986 kPa, x2 = 0.0998): 142.483 ± 1 kg/m3 | mass density (299.99 K, 18001 kPa, x2 = 0.2017): 207.683 ± 1.5 kg/m3 | mass density (300 K, 3662 kPa, x2 = 0.2017): 34.438 ± 0.21 kg/m3 | mass density (300 K, 6399 kPa, x2 = 0.0998): 54.523 ± 0.36 kg/m3 | mass density (300 K, 7624 kPa, x2 = 0.0998): 66.394 ± 0.45 kg/m3 | mass density (300 K, 8000 kPa, x2 = 0.7985): 212.092 ± 1.8 kg/m3 | mass density (300 K, 10995 kPa, x2 = 0.3997): 166.796 ± 1.1 kg/m3 | mass density (300 K, 14999 kPa, x2 = 0.2017): 171.971 ± 1.2 kg/m3 | mass density (300 K, 17997 kPa, x2 = 0.6015): 433.882 ± 3.2 kg/m3 | mass density (300.01 K, 5001 kPa, x2 = 0.2017): 48.462 ± 0.29 kg/m3 | mass density (300.01 K, 8998 kPa, x2 = 0.7985): 274.617 ± 3.2 kg/m3 | mass density (300.01 K, 9002 kPa, x2 = 0.6015): 176.866 ± 1.3 kg/m3 | mass density (300.01 K, 11000 kPa, x2 = 0.2017): 120.384 ± 0.82 kg/m3 | mass density (300.02 K, 2964 kPa, x2 = 0.0998): 23.652 ± 0.17 kg/m3 | mass density (300.02 K, 3999 kPa, x2 = 0.7985): 74.633 ± 0.36 kg/m3 | mass density (300.02 K, 6996 kPa, x2 = 0.7985): 165.378 ± 1.1 kg/m3 | mass density (300.02 K, 9996 kPa, x2 = 0.6015): 207.768 ± 1.7 kg/m3 | mass density (300.02 K, 10011 kPa, x2 = 0.8988): 582.856 ± 7.7 kg/m3 | mass density (300.02 K, 15007 kPa, x2 = 0.3997): 246.022 ± 1.8 kg/m3 | mass density (300.02 K, 18000 kPa, x2 = 0.0998): 171.73 ± 1.3 kg/m3 | mass density (300.03 K, 5996 kPa, x2 = 0.8988): 149.398 ± 0.97 kg/m3 | mass density (300.03 K, 10998 kPa, x2 = 0.6015): 241.279 ± 2.1 kg/m3 | mass density (300.03 K, 11790 kPa, x2 = 0.0998): 109.201 ± 0.77 kg/m3 | mass density (300.03 K, 17999 kPa, x2 = 0.8988): 760.577 ± 5.9 kg/m3 | mass density (300.04 K, 5006 kPa, x2 = 0.8988): 112.111 ± 0.6 kg/m3 | mass density (300.04 K, 6260 kPa, x2 = 0.0998): 53.19 ± 0.34 kg/m3 | mass density (300.04 K, 12001 kPa, x2 = 0.7985): 485.736 ± 5.2 kg/m3 | mass density (300.04 K, 14998 kPa, x2 = 0.6015): 367.75 ± 3 kg/m3 | mass density (300.05 K, 18002 kPa, x2 = 0.3997): 297.591 ± 2.1 kg/m3 | mass density (300.06 K, 5002 kPa, x2 = 0.3997): 62.85 ± 0.36 kg/m3 | mass density (300.06 K, 17999 kPa, x2 = 0.7985): 637.414 ± 4.4 kg/m3 | mass density (300.07 K, 9277 kPa, x2 = 0.0998): 82.984 ± 0.55 kg/m3 | mass density (300.07 K, 14999 kPa, x2 = 0.7985): 584.129 ± 4.6 kg/m3
